Here are results for 88 molecules from a melting point compilation (Tetko et al.; mined from patent text by program, amines drawn as free bases though some values may be those of a salt).

Turning to `CC(Cc1cc(I)c(Oc2ccc(O)cc2)c(I)c1)(NC=O)C(=O)O` (stereo not drawn), the melting point (as a rule, the temperature, or range, at which the solid turns liquid) was in the range of 221 to 223 °C.
In the case of `O=c1c2ccccc2n(Cc2ccccc2)n2cccc12`, the melting point fell in the range of 146 to 148 °C.
The result for `CC(=O)C=Cc1cccc(OCCF)c1OCCF` reads 71 to 72 °C; that for `CN(Nc1ccccc1COc1ccn(-c2ccc(Cl)cc2)n1)C(N)=O`, 152 to 154 °C; that for `CCOC(=O)C1=C(C)NC(=S)N(C(=O)c2ccc([N+](=O)[O-])cc2)C1c1cccc([N+](=O)[O-])c1` (stereo not drawn), 139 to 141 °C.
Under `Nn1c(C(F)(F)F)cc(=O)n(-c2c(F)cc(Cl)c3c2ONC3c2ccccc2)c1=O` (stereo not drawn) stands 171 to 173 °C.
The result for `CCOC(=O)CN1CCN(C2=Nc3ccccc3Cc3ccccc32)CC1` reads 107 to 108 °C; that for `Cc1ccc(Nc2nc(-c3c(-c4ccccc4)noc3C)cs2)nc1`, 267 to 269 °C; that for `CC(=O)NC[C@H]1CN(c2ccc(C3=CCCN(C(=O)OC(C)(C)C)CC3)c(F)c2)C(=O)O1`, 164 to 165 °C.
In the case of `O=C(O)c1ccc(COc2ccccc2)nc1C(=O)O`, the melting point stood at 270 °C.
The result for `O=c1nc(-c2ccccc2)c2cc([N+](=O)[O-])sc2n1CC1CC1` reads 216 to 218 °C.
In turn, `CC(=O)Nc1ccccc1C(=O)NC(=O)Nc1ccc(Oc2ncc(Br)cn2)c(C)c1` returned a melting point of 186 to 191 °C.
Under `O=C(O)CCc1nc(-c2ccccc2)cc2ccccc12` stands 160 °C.
For `NS(=O)(=O)c1ccc(-c2oc3ccc(F)cc3c(=S)c2-c2ccc(F)cc2)cc1`, the melting point fell in the range of 224 to 225 °C.
Under `CC(C)(C)OCCCC1(O)c2ccccc2COc2ccccc21` (stereo not drawn) stands 113 to 115 °C; under `CCOC(=O)CN1C(=O)Nc2cccc(Cl)c2C1C` (stereo not drawn), 143 to 144 °C; under `CCC(C)N1CC(C)=CC2=C1N1CN(OC)C=C1N=N2` (stereo not drawn), 157 to 159 °C.
The result for `COC(=O)COc1ccc2cc(-c3cnc(-c4cn(C)c5ccccc45)o3)ccc2c1` reads 187 to 189 °C; that for `O=C(Nc1c(C(O)(C(F)(F)F)C(F)(F)F)ccc2ccccc12)c1ccc(I)cc1`, 189 to 190 °C; that for `CCOC(=O)c1c(Cc2cc3c(cc2Cl)OCO3)c(-c2ccccc2)nn1CC1CCCCC1`, 130 °C.
The result for `COC(=O)c1ccc(C(=O)/C=C/c2cc(-c3cc4ccccc4s3)c(OC)cc2OC)cc1` reads 149 to 151 °C; that for `O=C(CC1CCCCC1)c1ccccc1`, 61 to 67 °C.
Consider `CCCSc1sc(C(=O)OCC)c2c1-c1[nH]ncc1CC2`, for which the melting point was 161 to 162 °C.
The molecule `CCOC(=O)c1cnc2cc(OC)ccc2c1O` returned a melting point greater than 260 °C.
Under `N=C(N)NCCc1ccc(OCCC2Oc3ccccc3N(Cc3ccc4ccccc4c3)C2=O)cc1` (stereo not drawn) stands 173 to 178 °C.
`CNC(=O)C1(Cl)CC1(Cl)Cl` (stereo not drawn) registered a melting point of 71 to 72 °C.
The result for `C=CCOc1ccc(OC2CCCCO2)c2c1CCC(=O)N2` (stereo not drawn) reads 113 to 115 °C; that for `COc1ccc(CC2SC(=O)NC2=O)c2c1N(Cc1ccc(N)cc1)C(=O)CC2` (stereo not drawn), 174 to 175 °C; that for `O=c1[nH]c(=O)n2c(c1Cc1ccccc1)SCCC2`, 227 to 229 °C.
Under `NC(=NO)c1ccc(-c2n[nH]c3c2Cc2ccccc2-3)cc1` stands greater than 300 °C.
The result for `C[C@H]1NC(=O)[C@H]1N(NC(=O)OC(C)(C)C)C(=O)OC(C)(C)C` reads 147 to 149 °C; that for `FC(F)(F)Oc1ccc(-c2ccc3[nH]c4c(ccc5cc[nH]c54)c3c2)cc1`, greater than 250 °C.
Consider `O=c1[nH]c2cc(C(F)(F)F)cc(C(F)(F)F)c2[nH]c1=O`, for which the melting point lay within 305 to 308 °C.
Consider `CNC(=O)Nc1cc(C(C)(C)COC)on1`, for which the melting point fell in the range of 65 to 67 °C.
The result for `CCC1c2cccn2-c2ccc(F)cc2N1C(=O)c1cccc(O)c1` (stereo not drawn) reads 115 to 117 °C; that for `CN1CCN(C(=O)OC2C3=C(SCCS3)C(=O)N2c2ccc3cccnc3n2)CC1` (stereo not drawn), 255 °C; that for `CCN1CCCC1CNC(=O)c1nc(Cl)c(OC)nc1OC` (stereo not drawn), 100 to 101 °C.
The result for `O=[N+]([O-])c1cc(C(F)(F)F)cc([N+](=O)[O-])c1Nc1ncc(Cl)cc1Cl` reads 85 to 87 °C; that for `C#CC(C)(C)OC(=O)Nc1ccc(-c2ncn(-c3ccc(C(F)(F)F)cc3)n2)cc1`, 187 to 189 °C.
Turning to `COC(=O)c1cc(CN=C=S)cc(CN=C=S)c1`, the melting point lay within 67 to 69 °C.
The result for `C[C@H](NC(=O)c1c[nH]c2ncc(C3CC3)nc12)C(C)(C)CS(C)(=O)=O` reads 232 to 234 °C.
The result for `Cc1cc(Cl)cc2c(=O)oc(-c3cc(OCC(F)(F)F)nn3-c3ncccc3Cl)nc12` reads 178 to 180 °C; that for `CCCc1c(C(=O)CO)c2ccc(C(N)=O)cc2n1Cc1ccccc1Cl`, 231 to 234 °C.
Under `CCCc1nn(-c2ccc(C(F)(F)F)cn2)cc1CCCCO` stands 80 to 81 °C.
As to `O=c1[nH]c2ccc(C(F)(F)F)cc2c(-c2cc(Cl)ccc2O)c1NCc1ccccc1`, the melting point fell in the range of 215 to 217 °C.
Under `OCCCc1ccc(OCC2CCCO2)cc1Oc1ncc(C(F)(F)F)cc1Cl` (stereo not drawn) stands 91.3 to 93.6 °C.
`CCc1cc(/C=C/[N+](=O)[O-])ccc1N=C1SCC2(CCCC2)N1C1CCCC1` yielded a melting point of 141 to 142 °C.
The result for `O=C1NC(=O)C(c2ccc(-c3ccccc3)cc2)(N2CCN(c3ccc(N4C(=O)CCC4=O)cc3)CC2)C(=O)N1` reads 310 to 311 °C; that for `O=C(OCc1ccccc1)N1C[C@@H]2CN(c3ccc(N4C[C@H](CO)OC4=O)cc3F)C[C@@H]2C1`, 168 to 171 °C.
The result for `CCCCC(=O)c1ncc(-c2ccccn2)o1` reads 36 to 37 °C; that for `Cn1cc(C(=O)O)c(=O)c2c3ccc(F)c(N4CCC(O)(c5cccc(C(F)(F)F)c5)CC4)c3ncc21`, 245 °C; that for `CCc1nc(CO)n(CC)c1Sc1cc(C#N)cc(C#N)c1`, 141 to 143 °C.
`CCOCc1nc2c(N)nc3cc(OCc4ccccc4Cl)ccc3c2n1CC(C)C` yielded a melting point of 211 to 212 °C.
The result for `N#Cc1nc(C#Cc2ccccc2)c(C#Cc2ccccc2)nc1C#N` reads 226 to 227 °C; that for `CC(C)(C)OC(=O)N(N)Cc1ccc(-c2ccccc2)cc1`, 84 to 85 °C; that for `CC(C#N)c1cc(O)cc2cc(-c3ccc(O)cc3)oc12` (stereo not drawn), 183 to 185 °C.
Under `N#Cc1ccccc1CN1CCSC1=O` stands 116 to 117 °C; under `Cc1cccc(-c2ccnc3c(C#N)cnn23)c1`, 161 to 162 °C.
As for `Cc1ccc(S(=O)(=O)N2CCC[C@@H]2C(=O)N[C@H](Cc2ccccc2)C(=O)O)cc1`, the melting point was 71 to 75 °C.
As for `Oc1c2c(nn1-c1nc3ccccc3[nH]1)CCc1ccccc1-2`, the melting point lay within 205 to 206 °C.
Under `Cc1nc(NCc2ccccc2C)c2nc(-c3ccccc3)cc-2[nH]1` stands 277 to 281 °C; under `CC1CC2C3CCC4=CC(=O)CCC4(C)C3=CCC2(C)C1(O)C(=O)CO` (stereo not drawn), 167 to 168 °C.
Under `CCCCNC(=S)Nc1ccccc1N1CCOCC1` stands 105 °C; under `Cc1noc(NS(=O)(=O)c2ccccc2-c2ccccc2)c1Cl`, 132 to 134 °C; under `COC12CC(c3nnc(-c4cncc(Br)c4)[nH]3)CN(C)C1Cc1c[nH]c3cccc2c13` (stereo not drawn), 142 to 146 °C.
The result for `CNc1cc(Oc2ccc3c(C(=O)Nc4ccc(F)c(C(F)(F)F)c4)cncc3c2)ncn1` reads 255 to 257 °C; that for `Cc1ccc(Cc2cnc(NCCCNc3ncccc3Cl)[nH]c2=O)cn1`, 91 to 94 °C.
Molecule `O=C(O)CC(c1ccc(F)cc1)c1ccc(F)cc1` displayed a melting point of 106 to 107 °C.
The result for `Oc1ccc(CC2NCCC3=C2CCCC3)cc1` (single isomer, unassigned; (+)) reads 154 to 156 °C; that for `COc1cc(C=CC(=O)Nc2cnc3ccc(C(C)C)cc3c2-c2ccccc2Cl)cc(OC)c1OC(C)=O`, 138 °C; that for `N#Cc1ccc(OCCCCOc2ccc(-c3cc4ccc(C#N)cc4o3)cc2)cc1`, 187 to 189 °C.
Under `CCS(=O)(=O)c1ccc(Oc2ccc3c(c2)OCO3)nc1` stands 97 to 99 °C.
Under `CC(C)(C)OC(=O)NCCNC(=O)c1cc(Cl)ccn1` stands 120 to 123 °C.
`CCCn1c(COCC)nc2c(N)nc3cc(OCc4ccccc4)ccc3c21` registered a melting point of 188 to 189 °C.
`O=C(O)COc1cccc(C=Cc2nc(-c3ccccc3)c(-c3ccccc3)o2)c1` yielded a melting point of 213 to 215 °C.
Under `N#CNC(=NCCO[N+](=O)[O-])c1cncc(N)c1` stands 121 °C; under `C=CCN1C(=O)c2cccc3c(N(C)CCO)ccc(c23)C1=O`, 90 to 91 °C.
The result for `COC12CC(CNC(=S)NC(C)=O)CN(C)C1Cc1cn(C)c3cccc2c13` (stereo not drawn) reads 170 to 172 °C.
In the case of `Cc1ccc(S(=O)(=O)OC(C)C(=O)N2CCOCC2)cc1` (stereo not drawn), the melting point fell in the range of 75 to 77 °C.
Under `COc1ccc(CNC(=O)c2c(C)c([N+](=O)[O-])cc3nc(OC)c(OC)nc23)cc1` stands 187 to 189 °C; under `O=c1n(O)ccn1Cc1ccc(OCc2ccccc2)cc1`, greater than 175 °C.
Consider `C[C@@H](O)c1nccc(N2CCn3c(nnc3-c3nc4ccccc4s3)C2)n1`, for which the melting point lay within 216 to 218 °C.
Under `CC(C)COc1ccc2c(c1)CCC1C2=CCC2(C)C(=O)CCC12` (stereo not drawn) stands 107 to 108 °C; under `CCc1nnc2n1-c1ccc(Cl)cc1C(c1ccccc1)=NC2`, 229 to 230 °C; under `C=CCOC(=O)NC12CC3CC(CC(C3)C1)C2`, 56 to 58 °C.
Consider `CCOC(=O)CNC(=O)c1nnc2ccc(NCCCN3CCC(OC(c4ccccc4)c4ccccc4)CC3)nn12`, for which the melting point fell in the range of 152 to 155 °C.
The result for `CC(C)(C)C(OCc1ccc(Cl)cc1)c1cncnc1` (stereo not drawn) reads 77 to 78.5 °C.
The result for `CNC(=O)C(C)Oc1ccc(O)cc1` (stereo not drawn) reads 112 °C.
